Experiments:
CDK2/CycE = CDK2/CycE (Homo sapiens (Human), UniProt P24941); assay: CDK2/CycE kinase assay (TR-FRET); type: biochemical; settings: 10 μM ATP; read-out: CDK2 avg (IC50 [mol/l])
In short: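 GST-tagged human CDK2 and GST-CycE from Sf9 cells (~130 ng/ml) were preincubated with compound for 15 min at 22 °C. Reaction with 10 μM ATP and 0.75 μM biotinylated peptide (final) ran 25 min at 22 °C, pH 8.0. Phospho-peptide was read by TR-FRET (665/620 nm ratio, anti-pRB antibody, Eu donor) and normalised to no-enzyme and no-inhibitor controls.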

human Bub1 = human Bub1 (Homo sapiens (Human), UniProt O43683); assay: Bub1 kinase assay (TR-FRET); type: biochemical; settings: 10 μM ATP; read-out: Bub1 avg (IC50 [mol/l])
In short: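 His6-tagged human Bub1 catalytic domain (aa 704-1085, insect-cell expressed, ~200 ng/ml) preincubated with compound 15 min, then reacted 60 min at 22 °C with 10 μM ATP and 1 μM biotinylated peptide (final) in pH 7.5 Tris buffer. Phosphopeptide detected by TR-FRET 665/620 ratio, normalised to no-inhibitor and no-enzyme controls.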

human Bub1, sequence (O43683 704-1085): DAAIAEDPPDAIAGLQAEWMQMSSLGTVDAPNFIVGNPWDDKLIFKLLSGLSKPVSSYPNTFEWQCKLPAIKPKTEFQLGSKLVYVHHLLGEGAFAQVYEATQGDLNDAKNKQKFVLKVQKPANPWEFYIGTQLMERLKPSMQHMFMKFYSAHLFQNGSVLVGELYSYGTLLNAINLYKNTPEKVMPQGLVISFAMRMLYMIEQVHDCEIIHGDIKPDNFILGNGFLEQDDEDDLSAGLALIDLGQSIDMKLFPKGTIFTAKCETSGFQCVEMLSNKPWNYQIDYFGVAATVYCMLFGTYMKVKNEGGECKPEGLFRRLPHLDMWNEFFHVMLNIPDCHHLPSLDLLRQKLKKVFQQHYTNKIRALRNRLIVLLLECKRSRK

SMILES | IC50 (CDK2/CycE) | IC50 (human Bub1)
CCc1ccccc1NC(=O)c1c(C)nsc1Nc1cnc2ccccc2n1 [Example 19, N-(2-Ethylphenyl)-3-methyl-5-(quinoxalin-2-ylamino)-1,2-thiazole-4-carboxamide] | > 20 µM | > 20 µM
Cc1nsc(Nc2cnc3ccccc3n2)c1C(=O)Nc1ccc(Oc2ccc(F)cc2F)nc1 [Example 113, N-[6-(2,4-Difluorophenoxy)pyridin-3-yl]-3-methyl-5-(quinoxalin-2-ylamino)-1,2-thiazole-4-carboxamide] | > 20 µM | > 20 µM
COc1ccc(NC(=O)c2c(C)nsc2Nc2ccc(C#N)cn2)cn1 [Example 39, 5-[(5-Cyanopyridin-2-yl)amino]-N-(6-methoxypyridin-3-yl)-3-methyl-1,2-thiazole-4-carboxamide] | > 20 µM | > 20 µM
Cc1nsc(Nc2nc3c(C(F)(F)F)cccc3s2)c1C(=O)Nc1ccc(F)c(F)c1 [Example 51, N-(3,4-Difluorophenyl)-3-methyl-5-{[4-(trifluoromethyl)-1,3-benzothiazol-2-yl]-amino}-1,2-thiazole-4-carboxamide] | > 20 µM | > 20 µM
Cc1nsc(Nc2cnc3ccccc3n2)c1C(=O)Nc1ccc(OC(C)C)nc1 [Example 122, N-(6-Isopropoxypyridin-3-yl)-3-methyl-5-(quinoxalin-2-ylamino)-1,2-thiazole-4-carboxamide] | > 20 µM | > 20 µM
Cc1nsc(Nc2cnc3ccccc3n2)c1C(=O)Nc1ccc(F)c(F)c1 [Example 50, N-(3,4-Difluorophenyl)-3-methyl-5-(quinoxalin-2-ylamino)-1,2-thiazole-4-carboxamide] | > 20 µM | > 20 µM
COc1ncc(NC(=O)c2c(C)nsc2Nc2ccc(C#N)cn2)cc1C [Example 120, 5-[(5-Cyanopyridin-2-yl)amino]-N-(6-methoxy-5-methylpyridin-3-yl)-3-methyl-1,2-thiazole-4-carboxamide] | > 20 µM | > 20 µM
Cc1nsc(Nc2cncc(C(=O)N3CCCC3)n2)c1C(=O)Nc1ccc(F)c(F)c1 [Example 106, N-(3,4-Difluorophenyl)-3-methyl-5-{[6-(pyrrolidin-1-ylcarbonyl)pyrazin-2-yl]amino}-1,2-thiazole-4-carboxamide] | > 20 µM | > 20 µM

Second part, the compound after the results:

IC50 (CDK2/CycE) | IC50 (human Bub1) | SMILES
> 20 µM | > 20 µM | Cc1nsc(Nc2cc(C#N)ccn2)c1C(=O)Nc1ccc(Cl)c(F)c1 [Example 54, N-(4-Chloro-3-fluorophenyl)-5-[(4-cyanopyridin-2-yl)amino]-3-methyl-1,2-thiazole-4-carboxamide]
> 20 µM | > 20 µM | COc1ccc(NC(=O)c2c(C)nsc2Nc2cnc3cc(C(F)(F)F)ccc3n2)cn1 [Example 45, N-(6-Methoxypyridin-3-yl)-3-methyl-5-{[6-(trifluoromethyl)quinoxalin-2-yl]amino}-1,2-thiazole-4-carboxamide]
> 20 µM | > 20 µM | Cc1nsc(Nc2ncc(C(=O)N(C)C)s2)c1C(=O)Nc1ccc(F)c(F)c1 [Example 49, N-(3,4-Difluorophenyl)-5-{[5-(dimethylcarbamoyl)-1,3-thiazol-2-yl]amino}-3-methyl-1,2-thiazole-4-carboxamide]
> 20 µM | > 20 µM | COc1ccc(Oc2ccc(NC(=O)c3c(C)nsc3Nc3cnc4ccccc4n3)cn2)cc1 [Example 116, N-[6-(4-Methoxyphenoxy)pyridin-3-yl]-3-methyl-5-(quinoxaline-2-ylamino)-1,2-thiazole-4-carboxamide]
> 20 µM | > 20 µM | CCc1ccccc1NC(=O)c1c(C)nsc1Nc1ncnc2ccsc12 [Example 13, N-(2-Ethylphenyl)-3-methyl-5-(thieno[3,2-d]pyrimidin-4-ylamino)-1,2-thiazole-4-carboxamide]
> 20 µM | > 20 µM | Cc1nsc(Nc2nc3c(C(F)(F)F)cccc3s2)c1C(=O)Nc1ccc(Cl)c(F)c1 [Example 53, N-(4-Chloro-3-fluorophenyl)-3-methyl-5-{[4-(trifluoromethyl)-1,3-benzothiazol-2-yl]amino}-1,2-thiazole-4-carboxamide]
> 20 µM | > 20 µM | CCc1ccccc1NC(=O)c1c(C)nsc1Nc1cc(C(F)(F)F)ccn1 [Example 18, N-(2-Ethylphenyl)-3-methyl-5-{[4-(trifluoromethyl)pyridin-2-yl]amino}-1,2-thiazole-4-carboxamide]
> 20 µM | > 20 µM | COc1ccc(NC(=O)c2c(C)nsc2Nc2cnc3c(F)c(F)ccc3n2)cn1 [Example 43, 5-[(5,6-Difluoroquinoxalin-2-yl)amino]-N-(6-methoxypyridin-3-yl)-3-methyl-1,2-thiazole-4-carboxamide]
> 20 µM | > 20 µM | COC(=O)c1cncc(Nc2snc(C)c2C(=O)Nc2ccc(OC)nc2)n1 [Example 101, Methyl 6-({4-[(6-methoxypyridin-3-yl)carbamoyl]-3-methyl-1,2-thiazol-5-yl}amino)pyrazine-2-carboxylate]
> 20 µM | > 20 µM | CCOC(=O)c1cnc(Nc2snc(C)c2C(=O)Nc2ccc(OC)nc2)s1 [Example 29, Ethyl 2-({4-[(6-methoxypyridin-3-yl)carbamoyl]-3-methyl-1,2-thiazol-5-yl}amino)-1,3-thiazole-5-carboxylate]
> 20 µM | > 20 µM | COc1ccc(NC(=O)c2c(C)nsc2Nc2nc3c(C(F)(F)F)cccc3s2)cc1F [Example 47, N-(3-Fluoro-4-methoxyphenyl)-3-methyl-5-{[4-(trifluoromethyl)-1,3-benzothiazol-2-yl]amino}-1,2-thiazole-4-carboxamide]
